According to the supplement of paper PMC11061612:

What was measured:
AZD6738 = compound: C[C@@H]1COCCN1C2=NC(=NC(=C2)C3(CC3)[S@](=N)(=O)C)C4=C5C=CNC5=NC=C4 [AZD6738]; details: max 10 µM
How it was run: (§1)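 Following 24 hours at 37°C and 5% CO2, cancer cell lines in 1536-well plates with 7.5 μl DMEM/F12 or RPMI and 10% FBS were dosed for 72 hours, final DMSO typically being 0.2%. CellTiter-Glo 2.0 luminescence, scaled between blank-well and DMSO-well means, gave the viability readout. Dose responses were fitted to a two-parameter logistic curve with a non-linear mixed effects model, and the single-agent IC50 was derived from this fit.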

AZD8186 = compound: C[C@@H](Nc1cc(F)cc(F)c1)c1cc(C(=O)N(C)C)cc2c(=O)cc(N3CCOCC3)oc12 [AZD8186]; details: max 3 µM
How it was run: as §1

SG3199 = compound: CC1=CN2[C@@H](C1)C=NC3=CC(=C(C=C3C2=O)OC)OCCCCCOC4=C(C=C5C(=C4)N=C[C@@H]6CC(=CN6C5=O)C)OC [SG3199]; details: max 0.001 µM
How it was run: as §1

AZD7648 = compound: Cc1cc2ncnn2cc1Nc1ncc2c(n1)n(C1CCOCC1)c(=O)n2C [AZD7648]; details: max 10 µM
How it was run: as §1

AZD1775 = compound: C=CCn1c(=O)c2cnc(Nc3ccc(N4CCN(C)CC4)cc3)nc2n1-c1cccc(C(C)(C)O)n1 [AZD1775]; details: max 3 µM
How it was run: as §1

Selumetinib = compound: Cn1cnc2c(F)c(Nc3ccc(Br)cc3Cl)c(C(=O)NOCCO)cc21 [Selumetinib]; details: max 10 µM
How it was run: as §1

Doxorubicin = compound: COc1cccc2c1C(=O)c1c(O)c3c(c(O)c1C2=O)C[C@@](O)(C(=O)CO)C[C@@H]3O[C@H]1C[C@H](N)[C@H](O)[C@H](C)O1 [Doxorubicin]; details: max 1 µM
How it was run: as §1

Olaparib = compound: O=C(c1cc(Cc2n[nH]c(=O)c3ccccc23)ccc1F)N1CCN(C(=O)C2CC2)CC1 [Olaparib]
How it was run: as §1

SN-38 = compound: CCc1c2c(nc3ccc(O)cc13)-c1cc3c(c(=O)n1C2)COC(=O)[C@]3(O)CC [SN-38]; details: max 0.3 µM
How it was run: as §1

Prexasertib = compound: COc1cccc(OCCCN)c1-c1cc(Nc2cnc(C#N)cn2)n[nH]1 [Prexasertib]; details: max 1 µM
How it was run: as §1

Palbociclib = compound: CC(=O)c1c(C)c2cnc(Nc3ccc(N4CCNCC4)cn3)nc2n(C2CCCC2)c1=O [Palbociclib]; details: max 10 µM
How it was run: as §1

Venetoclax = compound: CC1(C)CCC(CN2CCN(c3ccc(C(=O)NS(=O)(=O)c4ccc(NCC5CCOCC5)c([N+](=O)[O-])c4)c(Oc4cnc5[nH]ccc5c4)c3)CC2)=C(c2ccc(Cl)cc2)C1 [Venetoclax]; details: max 1 µM
How it was run: as §1

Gefitinib = compound: COc1cc2ncnc(Nc3ccc(F)c(Cl)c3)c2cc1OCCCN1CCOCC1 [Gefitinib]; details: max 10 µM
How it was run: as §1

AZD5991 = compound: Cc1c2c(nn1C)CSCc1cc(n(C)n1)CSc1cc(c3ccccc3c1)OCCCc1c(C(=O)O)n(C)c3c-2c(Cl)ccc13 [AZD5991]; details: max 1 µM
How it was run: as §1

Alisertib = compound: COc1cc(Nc2ncc3c(n2)-c2ccc(Cl)cc2C(c2c(F)cccc2OC)=NC3)ccc1C(=O)O [Alisertib]; details: max 10 µM
How it was run: as §1

AZD2811 = compound: CCN(CCO)CCCOc1ccc2c(Nc3cc(CC(=O)Nc4cccc(F)c4)[nH]n3)ncnc2c1 [AZD2811]; details: max 1 µM
How it was run: as §1

Taselisib = compound: Cc1nc(-c2cn3c(n2)-c2ccc(-c4cnn(C(C)(C)C(N)=O)c4)cc2OCC3)n(C(C)C)n1 [Taselisib]; details: max 10 µM
How it was run: as §1

Lapatinib = compound: CS(=O)(=O)CCNCc1ccc(-c2ccc3ncnc(Nc4ccc(OCc5cccc(F)c5)c(Cl)c4)c3c2)o1 [Lapatinib]; details: max 10 µM
How it was run: as §1

AZD0156 = compound: CN(C)CCCOc1ccc(-c2ccc3ncc4c(c3c2)n(C2CCOCC2)c(=O)n4C)cn1 [AZD0156]; details: max 3 µM
How it was run: as §1

AZD1390 = compound: CC(C)n1c(=O)n(C)c2cnc3cc(F)c(-c4ccc(OCCCN5CCCCC5)nc4)cc3c21 [AZD1390]; details: max 0.3 µM
How it was run: as §1

Capivasertib = compound: C1CN(CCC1(C(=O)N[C@@H](CCO)C2=CC=C(C=C2)Cl)N)C3=NC=NC4=C3C=CN4 [Capivasertib]
How it was run: as §1

Savolitinib = compound: C[C@@H](c1ccc2nccn2c1)n1nnc2ncc(-c3cnn(C)c3)nc21 [Savolitinib]; details: max 1 µM
How it was run: as §1

AZD4320 = compound: CN(CC[C@H](CSC1=CC=CC=C1)NC2=C(C=C(C=C2)S(=O)(=O)NC(=O)C3=CC=C(C=C3)N4CCC(CC4)[C@H](C5=CC=CC=C5C6=CC=C(C=C6)Cl)O)S(=O)(=O)C(F)(F)F)CCO [AZD4320]; details: max 1 µM
How it was run: as §1

Dasatinib = compound: CC1=C(C(=CC=C1)Cl)NC(=O)C2=CN=C(S2)NC3=CC(=NC(=N3)C)N4CCN(CC4)CCO [Dasatinib]; details: max 2 µM
How it was run: as §1

Trametinib = compound: CC(=O)Nc1cccc(-n2c(=O)n(C3CC3)c(=O)c3c(Nc4ccc(I)cc4F)n(C)c(=O)c(C)c32)c1 [Trametinib]; details: max 1 µM
How it was run: as §1

Crizotinib = compound: C[C@@H](Oc1cc(-c2cnn(C3CCNCC3)c2)cnc1N)c1c(Cl)ccc(F)c1Cl [Crizotinib]; details: max 10 µM
How it was run: as §1

AZD5153 = compound: COc1nnc2ccc(N3CCC(c4ccc(OCCN5CCN(C)C(=O)[C@H]5C)cc4)CC3)nn12 [AZD5153]; details: max 1 µM
How it was run: as §1

| Cell Line | IC50, cell viability 72 h (AZD6738) | IC50, cell viability 72 h (AZD8186) | IC50, cell viability 72 h (SG3199) | IC50, cell viability 72 h (AZD7648) | IC50, cell viability 72 h (AZD1775) | IC50, cell viability 72 h (Selumetinib) | IC50, cell viability 72 h (Doxorubicin) | IC50, cell viability 72 h (Olaparib; max 10 µM) | IC50, cell viability 72 h (SN-38) | IC50, cell viability 72 h (Prexasertib) | IC50, cell viability 72 h (Palbociclib) | IC50, cell viability 72 h (Venetoclax) | IC50, cell viability 72 h (Gefitinib) | IC50, cell viability 72 h (AZD5991) | IC50, cell viability 72 h (Alisertib) | IC50, cell viability 72 h (AZD2811) | IC50, cell viability 72 h (Taselisib) | IC50, cell viability 72 h (Lapatinib) | IC50, cell viability 72 h (AZD0156) | IC50, cell viability 72 h (AZD1390) | IC50, cell viability 72 h (Capivasertib; max 10 µM) | IC50, cell viability 72 h (Savolitinib) | IC50, cell viability 72 h (AZD4320) | IC50, cell viability 72 h (Dasatinib) | IC50, cell viability 72 h (Trametinib) | IC50, cell viability 72 h (Crizotinib) | IC50, cell viability 72 h (AZD5153) | IC50, cell viability 72 h (Olaparib; max 3 µM) | IC50, cell viability 72 h (Capivasertib; max 3 µM) |
| --- | --- | --- | --- | --- | --- | --- | --- | --- | --- | --- | --- | --- | --- | --- | --- | --- | --- | --- | --- | --- | --- | --- | --- | --- | --- | --- | --- | --- | --- |
| MDST8 (Colorectal Carcinoma) | 7.45 µM | > 3 µM | > 0.001 µM | > 10 µM | 0.875 µM | 1.15 µM | 0.224 µM | > 10 µM | 0.0156 µM | 0.025 µM | > 10 µM | > 1 µM | > 10 µM | > 1 µM | > 10 µM | > 1 µM | > 10 µM | > 10 µM | > 3 µM | > 0.3 µM | > 10 µM | > 1 µM | 0.89 µM | > 2 µM | 0.0199 µM | > 10 µM | > 1 µM | – | – |
| BT-483 (Breast Carcinoma) | – | – | – | – | > 3 µM | – | – | – | – | – | – | – | – | – | – | – | – | – | > 3 µM | – | – | – | – | – | – | – | – | > 3 µM | > 3 µM |
| A498 (Kidney Carcinoma) | > 10 µM | 0.425 µM | > 0.001 µM | > 10 µM | 1.69 µM | > 10 µM | > 1 µM | > 10 µM | > 0.3 µM | 0.201 µM | > 10 µM | > 1 µM | > 10 µM | > 1 µM | > 10 µM | > 1 µM | 9.45 µM | > 10 µM | > 3 µM | > 0.3 µM | 4.66 µM | > 1 µM | > 1 µM | > 2 µM | > 1 µM | > 10 µM | > 1 µM | – | – |
| PA-1 (Ovarian Carcinoma) | 3.17 µM | 1.06 µM | > 0.001 µM | > 10 µM | 0.543 µM | > 10 µM | 0.209 µM | > 10 µM | 0.0196 µM | 0.187 µM | 1.62 µM | > 1 µM | > 10 µM | 0.0807 µM | 0.238 µM | > 1 µM | 0.248 µM | 5.15 µM | > 3 µM | > 0.3 µM | 0.941 µM | > 1 µM | > 1 µM | 0.0302 µM | 0.869 µM | 3.09 µM | 0.0411 µM | – | – |
| TT2609-C02 (Thyroid Gland Carcinoma) | > 10 µM | > 3 µM | > 0.001 µM | > 10 µM | > 3 µM | 6.35 µM | > 1 µM | > 10 µM | 0.069 µM | > 1 µM | > 10 µM | > 1 µM | > 10 µM | > 1 µM | > 10 µM | > 1 µM | > 10 µM | > 10 µM | > 3 µM | > 0.3 µM | > 10 µM | > 1 µM | > 1 µM | > 2 µM | 0.28 µM | > 10 µM | > 1 µM | – | – |
| JSC-1 (B-Cell Non-Hodgkin's Lymphoma) | 1.86 µM | > 3 µM | > 0.001 µM | > 10 µM | 0.328 µM | 4.68 µM | 0.12 µM | > 10 µM | 0.00211 µM | 0.00524 µM | 5.84 µM | > 1 µM | > 10 µM | 0.0334 µM | 7.11 µM | > 1 µM | > 10 µM | > 10 µM | > 3 µM | > 0.3 µM | 7.45 µM | > 1 µM | > 1 µM | > 2 µM | 0.26 µM | 6.19 µM | 0.0667 µM | – | – |
| NCI-H1650 (Lung Adenocarcinoma) | > 10 µM | > 3 µM | > 0.001 µM | > 10 µM | > 3 µM | > 10 µM | > 1 µM | > 10 µM | > 0.3 µM | 0.472 µM | > 10 µM | > 1 µM | > 10 µM | > 1 µM | > 10 µM | > 1 µM | > 10 µM | > 10 µM | > 3 µM | > 0.3 µM | > 10 µM | > 1 µM | > 1 µM | > 2 µM | > 1 µM | > 10 µM | > 1 µM | – | – |
| GI-ME-N (Neuroblastoma) | > 10 µM | > 3 µM | > 0.001 µM | > 10 µM | 2.22 µM | > 10 µM | > 1 µM | > 10 µM | > 0.3 µM | 0.731 µM | > 10 µM | > 1 µM | > 10 µM | > 1 µM | > 10 µM | > 1 µM | > 10 µM | > 10 µM | > 3 µM | > 0.3 µM | > 10 µM | > 1 µM | > 1 µM | > 2 µM | > 1 µM | > 10 µM | > 1 µM | – | – |
| A3-KAW (B-Cell Non-Hodgkin's Lymphoma) | 0.355 µM | > 3 µM | > 0.001 µM | > 10 µM | 0.117 µM | > 10 µM | 0.0863 µM | 8.45 µM | 0.00318 µM | 0.00737 µM | 1.3 µM | > 1 µM | > 10 µM | 0.0217 µM | 0.0686 µM | 0.887 µM | > 10 µM | > 10 µM | 1.35 µM | > 0.3 µM | > 10 µM | > 1 µM | > 1 µM | > 2 µM | 0.997 µM | 3.98 µM | 0.0111 µM | – | – |
